Columns and labels:
Format in all cases: cell-based
[1] = test system: S. aureus ATCC 33591 (methicillin-resistant); experiment: broth microdilution MIC assay, S. aureus 33591; conditions: Staphylococcus aureus, ATCC33591; S. aureus 33591, methicillin-resistant; read-out: MIC, S. aureus 33591
How it was run: (§1)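 Following CLSI methods, 2-fold compound dilutions are challenged with 5×10^5 CFU/mL bacteria in cation-supplemented Mueller-Hinton broth. After 16-20 hours at 37° C, the lowest well showing no bacterial growth is taken as the MIC.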

S. aureus USA 300 = experiment: broth microdilution MIC assay, S. aureus USA300; conditions: Staphylococcus aureus; S. aureus USA300 (MRSA); read-out: MIC, S. aureus USA300
How it was run: as §1

S. aureus USA 600 = experiment: broth microdilution MIC assay, S. aureus USA600; conditions: Staphylococcus aureus; S. aureus USA600 (MRSA); read-out: MIC, S. aureus USA600
How it was run: as §1

[2] = test system: E. coli ATCC 25922 (wild-type/QC strain); experiment: broth microdilution MIC assay, E. coli 25922; conditions: Escherichia coli, ATCC25922; read-out: MIC, E. coli 25922
How it was run: as §1

[3] = test system: P. aeruginosa ATCC 27853 (wild-type/QC strain); experiment: broth microdilution MIC assay, P. aeruginosa 27853; conditions: Pseudomonas aeruginosa, ATCC27853; read-out: MIC, P. aeruginosa 27853
How it was run: as §1

[4] = test system: P. aeruginosa 35151 (hyper-permeable strain); experiment: broth microdilution MIC assay, P. aeruginosa 35151; conditions: Pseudomonas aeruginosa, read-out: MIC, P. aeruginosa 35151
How it was run: as §1

P. aeruginosa Paeβ-17 = experiment: broth microdilution MIC assay, P. aeruginosa Paeβ-17; conditions: Pseudomonas aeruginosa, read-out: MIC, P. aeruginosa Paeβ-17
How it was run: as §1

[5] = test system: P. aeruginosa clinical isolates; experiment: expanded MIC profiling, P. aeruginosa clinical isolates; conditions: Pseudomonas aeruginosa
Procedure: (§2) To evaluate the activity of selected example compounds against clinical isolates of target species, standard cell-based broth microdilution MIC assays were employed. A panel of 20 clinical isolates of P. aeruginosa and 20 clinical isolates of Methicillin Resistant S. aureus (MRSA) from Lankenau Medical Center (Wynnewood, Pa.) were used. In the set of P. aeruginosa isolates, the compounds were also tested in combination with a β-lactamase inhibitor (taniborbactam), to evaluate the potential benefit of inhibiting β-lactamase enzymes. The assay was conducted in Cation Adjusted Mueller Hinton Broth (CAMHB, BD #212322, BD Diagnostic Systems, Sparks, Md.). Bacteria strains were grown for 3-5 hours in CAMHB. Compounds were added to a microtiter plate in 2-fold serial dilutions in CAMHB. For plates receiving β-lactamase inhibitor, taniborbactam was added to obtain a final fixed concentration of 4 μg/mL. Once the test articles were added, the plates were inoculated according to CLSI broth microdilution method. After inoculation, the plates were incubated for 16-20 hours at 37° C. then the Minimal Inhibitory Concentration (MIC) of the test compound is determined visually. Values for concentration required to inhibit growth of […] (MIC50) and 90% (MIC90) of isolates were determined.

[6] = test system: Methicillin Resistant S. aureus (MRSA) clinical isolates; experiment: expanded MIC profiling, MRSA clinical isolates; conditions: Staphylococcus aureus
Procedure: as §2

[7] = panel of 20 P. aeruginosa clinical isolates
[8] = panel of S. aureus (MRSA) isolates of Table 5

C[C@@H](O)[C@H]1C(=O)N2C(C(=O)O)=C(S[C@@H]3CCN(C[C@H]4CC[C@H](NC(=N)N)CC4)C3)[C@H](C)[C@H]12 [Example 28, (4R,5S,6S)-3-(((R)-1-(((1R,4R)-4-guanidinocyclohexyl)methyl)pyrrolidin-3-yl)thio)-6-((R)-1-hydroxyethyl)-4-methyl-7-oxo-1-azabicyclo[3.2.0]hept-2-ene-2-carboxylic acid]
1 µg/mL: MIC ([5]; P. aeruginosa clinical isolate Lankenau 14) | MIC ([5]; P. aeruginosa clinical isolate Lankenau 15) | MIC ([5]; P. aeruginosa clinical isolate Lankenau 16) | MIC ([5]; P. aeruginosa clinical isolate Lankenau 17) | MIC ([5]; P. aeruginosa clinical isolate Lankenau 18) | MIC ([5]; P. aeruginosa clinical isolate Lankenau 19) | MIC ([5]; P. aeruginosa clinical isolate Lankenau 20) | MIC ([5]; P. aeruginosa clinical isolate Lankenau 21) | MIC ([5]; P. aeruginosa clinical isolate Lankenau 22) | MIC50 [5, 7]
8 µg/mL: MIC ([5]; P. aeruginosa clinical isolate Lankenau 28) | MIC90 [5, 7]
0.25 µg/mL: MIC ([6]; MRSA, S. aureus clinical isolate LH-SA37)
16 µg/mL: MIC ([5]; P. aeruginosa clinical isolate Lankenau 29) | MIC ([6]; MRSA, S. aureus clinical isolate LH-SA45)
1 to 4 µg/mL: MIC [1] | MIC (S. aureus USA 300) | MIC [3]
4 µg/mL: MIC ([6]; MRSA, S. aureus clinical isolate LH-SA34) | MIC ([6]; MRSA, S. aureus clinical isolate LH-SA38) | MIC ([6]; MRSA, S. aureus clinical isolate LH-SA44) | MIC90 [6, 8]
< 1 µg/mL: MIC (S. aureus USA 600) | MIC [2] | MIC [4]
32 µg/mL: MIC ([5]; P. aeruginosa clinical isolate Lankenau 30)
2 µg/mL: MIC ([5]; P. aeruginosa clinical isolate Lankenau 11) | MIC ([5]; P. aeruginosa clinical isolate Lankenau 23) | MIC ([5]; P. aeruginosa clinical isolate Lankenau 24) | MIC ([5]; P. aeruginosa clinical isolate Lankenau 25) | MIC ([5]; P. aeruginosa clinical isolate Lankenau 26) | MIC ([5]; P. aeruginosa clinical isolate Lankenau 27) | MIC ([6]; ATCC 33591 / MRSA, S. aureus ATCC-33591) | MIC ([6]; MRSA, S. aureus clinical isolate LH-SA29) | MIC ([6]; MRSA, S. aureus clinical isolate LH-SA33) | MIC ([6]; MRSA, S. aureus clinical isolate LH-SA39) | MIC ([6]; MRSA, S. aureus clinical isolate LH-SA40) | MIC ([6]; MRSA, S. aureus clinical isolate LH-SA41)
0.5 µg/mL: MIC ([5]; P. aeruginosa clinical isolate Lankenau 12) | MIC ([5]; P. aeruginosa clinical isolate Lankenau 13) | MIC ([6]; MRSA, S. aureus clinical isolate LH-SA3) | MIC ([6]; MRSA, S. aureus clinical isolate LH-SA9) | MIC ([6]; MRSA, S. aureus clinical isolate LH-SA23) | MIC ([6]; MRSA, S. aureus clinical isolate LH-SA24) | MIC ([6]; MRSA, S. aureus clinical isolate LH-SA26) | MIC ([6]; MRSA, S. aureus clinical isolate LH-SA42) | MIC ([6]; MRSA, S. aureus clinical isolate LH-SA48) | MIC ([6]; MRSA, S. aureus clinical isolate LH-SA49) | MIC ([6]; MRSA, S. aureus clinical isolate LH-SA50) | MIC50 [6, 8]
8 to 32 µg/mL: MIC (P. aeruginosa Paeβ-17)

— patent US20230127944A1, “BROAD-SPECTRUM CARBAPENEMS” (priority 2019, published 2023)
